Test results published in paper PMC7616682 (Journal of biological inorganic chemistry : JBIC : a …, 2024).
pIC50, pKd: −log10 of the molar value. ≈ marks a conversion by molar mass, not a printed value. Where two headings read alike, the source gives them in different places.

Columns and labels:
[1] = LogP by shake-flask method (n-octanol/phosphate buffer)
Protocol: using the "shake-flask" method.[6],[7] In short, phosphate buffer (50 mM, pH 7.4) was saturated with n-octanol by shaking a 1:1 mixture of both solution on a laboratory shaker for 72 h, after which the phases were separated. Stock solutions of each complex were then prepared in dimethylsulfoxide at a concentration of 10 mM. […]
(§1) solution with a concentration of 100 µM. From this solution, 1000 µL were transferred into an Eppendorf tube and mixed with 1000 µL of n-octanol. After shaking for 15 min and centrifugation (5 min, 6000 rpm), the two phases were carefully separated, and the contact layer discarded. Then, the absorbance of each phase was recorded with an Agilent 8453 UV/Vis spectrometer.
as §1, with “2 mL solution with” for “solution with”, “1000 µL phosphate buffer. After shaking” for “1000 µL of n-octanol. After shaking”, “rpm), the phases were” for “rpm), the two phases were”

streptavidin = streptavidin (Streptomyces avidinii, UniProt P22629); assay: Isothermal titration calorimetry (ITC) with streptavidin; type: binding; details: 25 °C, 10 mM HEPES + 2% DMSO; for pKd: read-out: dissociation constant (Kd) to streptavidin
Sequence of streptavidin (P22629 25-183, species assumed): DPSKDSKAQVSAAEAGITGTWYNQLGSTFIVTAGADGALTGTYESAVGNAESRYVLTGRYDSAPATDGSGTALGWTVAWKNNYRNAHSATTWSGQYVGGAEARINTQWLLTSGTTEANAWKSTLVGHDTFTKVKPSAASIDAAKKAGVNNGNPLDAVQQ
Protocol: Isothermal titration calorimetry
Streptavidin (20 µM in 10 mM HEPES plus 2% DMSO) was titrated stepwise with 2 uL injections of the compound (200 µM in 10 mM HEPES + 2% DMSO) at 25 °C, using a Malvern MicroCal PEAQ-ITC. Raw thermograms (top panels) and the binding isotherm from the integrated thermogram (bottom panels) were fit using the One Set of Sites model in the MicroCal PEAQ-ITC analysis software. Circles indicate the integrated heat, and the curve represents the best fit.
Figure S46: Isothermal titration calorimetry measurements of 5.
(§2) (1 picture or pasted object on this page, not shown here)

[2] = tested on: Acinetobacter baumanii ATCC 17978; assay: Rapid screen broth microdilution assay; type: cell-based, Acinetobacter baumannii; details: rapid screen without replicates, 24 h, read-out: MIC A. baumannii (Gram negative)
Protocol: (§3) Antibacterial activity assay
(§4) Rapid screen broth microdilution assay
(§5) 5 × 125 mL Erlenmeyer flasks, each filled with 12.5 mL Mueller Hinton broth II (MHBII), were inoculated with Klebsiella pneumoniae ATCC 13883, Acinetobacter baumanii ATCC 17978, Psuedomonas aeruginosa ATCC BAA-47, Staphylococcus aureus […]
(§6) with 12.5 mL BHI broth was inoculated with Enterococcus faecium ATCC 19434. The cultures were incubated at 37 °C with shaking at 180 rpm for 16 h. The suspensions were diluted 100-fold with the requisite broth (E. faecium: 4-fold) and the resultant suspensions incubated for a further 3 h at 37 °C with shaking. […]
(§7) of 0.8–1.2 after 3 h. Stock solutions of the title compounds were prepared in the requisite broth from 100 mM stocks in DMSO with the exceptions of carbenicillin, which was from a 100 mM stock in water and ciprofloxacin from a 10 mM stock in DMSO.
(§8) 6 × 96 well plates were primed with a concentration gradient of the analytes from 200 to 3.13 µM, carbenicillin from 200 to 3.13 µM and ciprofloxacin from 10 to 0.16 µM. The cells were diluted 100-fold to an OD600 of 0.01. All plates were then inoculated with 50 μL per well bacterial culture in the requisite broth to 100 μL per well. Plates were then incubated at 37 °C for 24 h before reading OD600 on a BMG Clariostar platereader. […]

[3] = tested on: Escherichia coli K12 ATCC 10798; assay: Rapid screen broth microdilution assay; type: cell-based; details: rapid screen without replicates, 24 h, read-out: MIC E. coli (Gram negative)
Protocol: as §3, §4, §5, §6, §7, §8

[4] = tested on: Klebsiella pneumoniae ATCC 13883; assay: Rapid screen broth microdilution assay; type: cell-based; details: rapid screen without replicates, 24 h, read-out: MIC K. pnuemoniae (Gram negative)
Protocol: as §3, §4, §5, §6, §7, §8

[5] = tested on: Psuedomonas aeruginosa ATCC BAA-47; assay: Rapid screen broth microdilution assay; type: cell-based, Pseudomonas aeruginosa; details: rapid screen without replicates, 24 h, read-out: MIC P. aeruginosa (Gram negative)
Protocol: as §3, §4, §5, §6, §7, §8

E. faecium ATCC 19434 = assay: MIC broth microdilution assay; type: cell-based, Enterococcus faecium; details: 24 h, read-out: MIC E. faecium (Gram positive)
Protocol: (§9) Antibacterial activity assay […]
(§10) MIC broth microdilution assay
(§11) 3 × 125 mL Erlenmeyer flasks, each filled with 12.5 mL MHBII, were inoculated with three different colonies of S. aureus NTCC 12973. 3 × 125 mL Erlenmeyer flasks, each filled with 12.5 mL BHI broth, were inoculated with three different colonies of E. faecium ATCC 19434. The cultures were incubated at 37 °C with shaking at 180 rpm for 16 h.
(§12) OD600 of ~2.5. The suspensions of S. aureus cultures were diluted 100-fold with MHBII while the E. faecium cultures were diluted 4-fold. The resultant suspensions were incubated for a further 3 h at 37 °C with shaking. […]
(§13) after 3 h. Stock solutions of the title compounds were prepared in the requisite broth from 100 mM stocks in DMSO with the exception of carbenicillin, which was from a 100 mM stock in water and vancomycin from a 10 mM stock in DMSO. 15 × 96 well plates were primed with concentration gradients of the analytes and carbenicillin as shown in Figure S60 for S. aureus. 15 × 96 well plates were primed with the concentration […]
(§14) μL per well of the relevant bacterial culture in the requisite broth to 100 μL per well.

S. aureus NTCC 12973 = assay: MIC broth microdilution assay; type: cell-based, Staphylococcus aureus; details: 24 h, read-out: MIC S. aureus (Gram positive)
Protocol: as §9, §10, §11, §12, §13, §14
Plates were then incubated at 37 °C for 24 h before reading OD600 on a BMG Clariostar […]
Figure S50: Dose response profiles of the title compounds against S. aureus.
as §2

[6] = tested on: BEAS2B (non-cancer lung) cells; assay: Cell viability (DAPI nuclei count); type: cell-based, human; details: 48 h
Protocol: (§15) To determine the relative viability, after incubation cells were fixed and stained with DAPI and the number of nuclei per well determined using a CeligoTM Image Cytometer (Figure S52 to S60). […] page 43: Cell viability studies Compound cytotoxicity was tested simultaneously on five representative cell lines […] All cells were cultured in DMEM Glutamax without pyruvate with 10% fetal bovine serum and 1% penicillin/streptomycin (Gibco). Cells were incubated with the compound for 24 or 48 h […] The tested concentration range for each compound was […] The required […] Greiner CELLSTAR® microplates) using the Echo 550 Acoustic Liquid Handler and wells were back-filled with DMSO when required to keep a final DMSO concentration […] Next, 50 μL of cell solution was added to the compound-containing wells using the Integra® […] Bulk dispenser. Cell solutions were prepared to get 5000 […] cells per well for hTERT RPE-1, and 5000 (24 h)/2500 (48 h) cells per well for BEAS- […] After incubation, cells were fixed with 4% PFA (Merck, […]), permeabilized with […] DAPI (Merck, 10236276001). Viable cells were counted using 377 nm excitation and 447 nm emission filters on the CeligoTM Image Cytometer. The number of nuclei per well was determined using the Direct Cell Count analysis from the CeligoPro Sofware […] All conditions were performed in triplicate. Staurosporine (Cambridge Bioscience, s7600) was used as a positive control and DMSO only as a negative control. The percentage of cell viability was normalized to the DMSO-only control and […] logistic curve with the scipy.optimize.curve_fit function. S43

[7] = tested on: HCT116 (colorectal cancer) cells; assay: Cell viability (DAPI nuclei count); type: cell-based, human
Protocol: as §15

[8] = tested on: HaCat (non-cancer skin) cells; assay: Cell viability (DAPI nuclei count); type: cell-based, human; details: 48 h
Protocol: as §15

[9] = tested on: HeLa (cervical cancer) cells; assay: Cell viability (DAPI nuclei count); type: cell-based, human; details: 48 h
Protocol: as §15

[10] = tested on: RPE1 (retinal pigment epithelial cells); assay: Cell viability (DAPI nuclei count); type: cell-based, human
Protocol: as §15

[11] = tested on: BEASB2, HaCat, RPE1, HCT116 and HeLa cell lines; assay: Cell viability, summary over all cell lines studied; type: cell-based, human; details: Homo sapiens; summary of Table 3, 48 h; read-out: IC50 values, range over all cell lines studied
Protocol: as §15

avidin [12] = target: T1, avidin (Gallus gallus, UniProt P02701); assay: HABA/avidin assay; type: binding; details: titration of HABA/avidin mixture, absorbance at 500 nm
T1 construct: purchased SIGMA-ALDRICH A9275
T1 sequence (P02701 25-152): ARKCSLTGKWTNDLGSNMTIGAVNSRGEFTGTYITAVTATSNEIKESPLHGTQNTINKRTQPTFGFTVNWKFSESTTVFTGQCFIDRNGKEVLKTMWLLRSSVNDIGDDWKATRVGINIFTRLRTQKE
Protocol: properties towards avidin using the HABA assay.[8] A mixture of avidin (6.8 μM, SIGMA-ALDRICH: A9275) and 4'-hydroxyazobenzene-2-carboxylic acid (HABA, 0.3 mM, SIGMA-ALDRICH: H5126) was dissolved in 50 mM sodium phosphate buffer (20 mL, pH 7.4) and allowed to equilibrate for 24 h at 4 °C. Stock solutions of each compound were prepared in dimethyl sulfoxide at a concentration of 1.1 mM. The […]
to the prepared avidin/HABA mixture (1 mL) at room temperature at 5–10 min intervals […]
absorbance then recorded with an Agilent 8453 UV/Vis spectrometer. The formation of the adduct was indicated by a decrease in the absorbance at 500 nm due to the displacement of HABA from the avidin. By plotting -ΔA500 nm vs. the molar concentration ratio c(compound):c(avidin), the binding stoichiometry of the compound to avidin was determined.

avidin [13] = target: T1, avidin; details: cited from earlier work
[14] = shake-flask method, n-octanol/phosphate buffer 50 mM pH 7.4

## O=C(C#Cc1ccccc1)CCCC[C@@H]1SC[C@@H]2NC(=O)N[C@@H]21 (stereo in doubt) [Compound 5, 7-[(3aS,4S,6aR)-2-oxohexahydro-1H-thieno-[3,4-d]imidazol-4-yl]-1-phenyl-1-heptyn-3-one]
[1]; [14]
  LogP: highly lipophilic^a
streptavidin
  pKd: > 9.00
[2]; Acinetobacter baumannii, ATCC17978
  MIC: > 200 µM
[3]; Escherichia coli, ATCC10798
  MIC: > 200 µM
[4]; Klebsiella pneumoniae, ATCC13883
  MIC: > 200 µM
[5]; Pseudomonas aeruginosa, ATCCBAA47
  MIC: > 200 µM
E. faecium ATCC 19434; Enterococcus faecium, ATCC19434, three colonies
  MIC: 200 µM (≈ 65.7 µg/mL)
S. aureus NTCC 12973; Staphylococcus aureus, NTCC12973, three colonies
  MIC: > 200 µM
[6]; Homo sapiens, BEAS-2B
  pIC50: 5.44
[7]; Homo sapiens, HCT-116, 48 h
  pIC50: 5.40
[8]; Homo sapiens, HaCaT
  pIC50: 5.48
[9]; Homo sapiens, HeLa
  pIC50: 5.48
[10]; Homo sapiens, RPE-1, 48 h
  pIC50: 5.62
[11]
  pIC50: 5.40 to 5.70

## COC(=O)c1n[n]([Pt+])nc1C(=O)OC.F[P-](F)(F)(F)(F)F.c1ccc(-c2cccc(-c3ccccn3)n2)nc1 [Compound 15]
[1]; pH 7.4
  LogP: -1.80
Avidin [12]
  avidin binding in HABA assay (result in words): non-specific protein binding
streptavidin
  dissociation constant (Kd) to streptavidin: did not bind to streptavidin
[2]
  MIC: >200 µM
[3]
  MIC: >200 µM
[4]
  MIC: >200 µM
[5]
  MIC: >200 µM
E. faecium ATCC 19434; three colonies
  MIC: >200 µM
S. aureus NTCC 12973; three colonies
  MIC: >200 µM
[7]; 48 h
  pIC50: 5.22
[8]
  pIC50: 4.81
[9]
  pIC50: 4.80
[10]; 48 h
  pIC50: 5.31

## O=C(O)c1ccccc1N=Nc1ccc(O)cc1 [HABA, 4'-hydroxyazobenzene-2-carboxylic acid]
Avidin [13]
  pKd: 5.22

## F[P-](F)(F)(F)(F)F.O=C1N[C@H]2[C@H](CS[C@H]2CCCCC(=O)c2n[n]([Pt+][c]3cccc(-c4cccc(-c5ccccn5)n4)n3)nc2-c2ccccc2)N1 [Compound 16, [Pt(triazolatoC6H5,biotin)(terpy)]PF6]
[1]; [14]
  LogP: -0.78
streptavidin
  pKd: 6.89
[2]
  MIC: >200 µM
[3]
  MIC: >200 µM
[4]
  MIC: >200 µM
[5]
  MIC: >200 µM
E. faecium ATCC 19434; three colonies
  MIC: >200 µM
S. aureus NTCC 12973; three colonies
  MIC: >200 µM
[6]
  pIC50: 5.08
[7]; 48 h
  pIC50: 5.17
[8]
  pIC50: 4.85
[9]
  pIC50: 4.88
[10]; 48 h
  pIC50: 5.28
